Source: ChEMBL document CHEMBL5346893, “1,2,4-Amino-triazine derivatives as pyruvate dehydrogenase kinase inhibitors: Synthesis and pharmacological evaluation” (Eur J Med Chem, 2023)

Legend:
[1] = target: [Pyruvate dehydrogenase (acetyl-transferring)] kinase isozyme 1, mitochondrial (Homo sapiens, UniProt Q15118); experiment: Inhibition of PDK1 (unknown origin) at 1.5 uM incubated for 30 mins followed by substrate addition measured after 60 mins in presence of ATP by ADP-Glo luminescent assay relative to control; conditions: time 90.0 min, values are per cent of control
[2] = target: [Pyruvate dehydrogenase (acetyl-transferring)] kinase isozyme 2, mitochondrial (Homo sapiens) (UniProt Q15119); experiment: Inhibition of PDK2 (unknown origin) at 1.5 uM incubated for 30 mins followed by substrate addition measured after 60 mins in presence of ATP by ADP-Glo luminescent assay relative to control; conditions: time 90.0 min
[3] = target: [Pyruvate dehydrogenase (acetyl-transferring)] kinase isozyme 3, mitochondrial (Homo sapiens) (UniProt Q15120); experiment: Inhibition of PDK3 (unknown origin) at 1.5 uM incubated for 30 mins followed by substrate addition measured after 60 mins in presence of ATP by ADP-Glo luminescent assay relative to control; conditions: time 90.0 min
Chain of [Pyruvate dehydrogenase (acetyl-transferring)] kinase isozyme 3, mitochondrial (Homo sapiens) (Q15120 whole entry, looked up): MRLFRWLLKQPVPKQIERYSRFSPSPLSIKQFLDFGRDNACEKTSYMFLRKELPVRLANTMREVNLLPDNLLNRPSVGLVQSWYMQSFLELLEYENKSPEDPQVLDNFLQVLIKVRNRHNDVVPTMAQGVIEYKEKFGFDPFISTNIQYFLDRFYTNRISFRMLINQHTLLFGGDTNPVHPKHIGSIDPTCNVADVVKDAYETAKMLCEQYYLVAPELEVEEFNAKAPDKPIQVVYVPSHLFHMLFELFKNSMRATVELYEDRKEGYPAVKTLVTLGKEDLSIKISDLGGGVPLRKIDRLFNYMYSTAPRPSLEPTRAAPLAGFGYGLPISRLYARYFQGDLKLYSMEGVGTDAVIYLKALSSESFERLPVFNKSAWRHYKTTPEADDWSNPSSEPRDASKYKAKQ

PSN1 [4] = experiment: Antiproliferative activity against human PSN1 cells expressing KRAS mutant cultured as 2D spheroids assessed as inhibition of cell growth measured after 72 hrs by MTT assay; format: functional, cell-based; conditions: PSN1, 72 h
BXPC-3 [5] = experiment: Antiproliferative activity against human BXPC-3 cells expressing wild type KRAS cultured as 3D spheroids assessed as inhibition of cell growth measured after 72 hrs by MTT assay; format: functional, cell-based; conditions: BXPC-3, 72 h
BXPC-3 [6] = experiment: Antiproliferative activity against human BXPC-3 cells expressing wild type KRAS cultured as 2D spheroids assessed as inhibition of cell growth measured after 72 hrs by MTT assay; format: functional, cell-based; conditions: BXPC-3, 72 h
PSN1 [7] = experiment: Antiproliferative activity against human PSN1 cells expressing KRAS mutant cultured as 3D spheroids assessed as inhibition of cell growth measured after 72 hrs by MTT assay; format: functional, cell-based; conditions: PSN1, 72 h

Row | residual activity [1] [%] | inhibition [2] [%] | inhibition [3] [%] | IC50 (BXPC-3 [5]) [µM] | IC50 (BXPC-3 [6]) [µM] | Structure (SMILES) | IC50 (PSN1 [4]) [µM] | IC50 (PSN1 [7]) [µM]
1 | 40 | 100 | 100 | 28.7 | 2.1 | Nc1nnc(-c2c[nH]c3ncc(Br)cc23)c(-c2c[nH]c3ccc(Br)cc23)n1 | 4.6 | 23.5
2 | 40 | 100 |  | 16.1 | 1.8 | Cn1cc(-c2nnc(N)nc2-c2c[nH]c3ccccc23)c2cccnc21 | 2.2 | 20.1
3 | 40 | 100 | 100 | 19.9 | 2.5 | Cn1cc(-c2nc(N)nnc2-c2c[nH]c3ccc(Br)cc23)c2cccnc21 | 3.6 | 24.1
4 | 40 | 100 |  | 54.5 | 1.4 | Nc1nnc(-c2c[nH]c3ccc(Br)cc23)c(-c2c[nH]c3ncc(Br)cc23)n1 | 1.5 | 21.6
5 | 40 | 100 | 100 | 22.2 | 2.2 | Cn1cc(-c2nc(N)nnc2-c2c[nH]c3ccc(F)cc23)c2cccnc21 | 3.2 | 20.3
6 | 40 | 100 |  | 13.6 | 1.4 | COc1ccc2[nH]cc(-c3nc(N)nnc3-c3cn(C)c4ncccc34)c2c1 | 2.3 | 13.6
7 | 40 | 100 | 100 | 19.7 | 2.5 | Nc1nnc(-c2c[nH]c3ncc(Br)cc23)c(-c2c[nH]c3ccc(F)cc23)n1 | 2.9 | 28.3
8 | 40 | 100 |  | 22.6 | 1.2 | Nc1nnc(-c2c[nH]c3ccc(F)cc23)c(-c2c[nH]c3ncccc23)n1 | 1.6 | 22.3
9 | 40 | 100 |  | 19.7 | 2.6 | Nc1nnc(-c2c[nH]c3ncccc23)c(-c2c[nH]c3ccc(F)cc23)n1 | 3.2 | 20.1
10 | 40 | 100 | 100 | 31.2 | 4.4 | COc1ccc2[nH]cc(-c3nc(N)nnc3-c3c[nH]c4ncc(Br)cc34)c2c1 | 4.7 | 17.2
11 | 40 | 100 |  |  |  | Nc1nnc(-c2c[nH]c3ccc(Br)cc23)c(-c2c[nH]c3ncccc23)n1 |  | 
12 | 40 | 100 |  | 10.7 | 1.5 | COc1ccc2[nH]cc(-c3nnc(N)nc3-c3cn(C)c4ncccc34)c2c1 | 2.1 | 12.2
13 | 40 | 100 |  |  |  | COc1ccc2[nH]cc(-c3nnc(N)nc3-c3c[nH]c4ncccc34)c2c1 |  | 
14 | 40 | 100 |  | 33.6 | 2.7 | Cn1cc(-c2nc(N)nnc2-c2c[nH]c3ccccc23)c2cc(Br)cnc21 | 4.7 | 31.2
